Data on 12 compounds can be found in ChEMBL document CHEMBL1150467, “The identification of a novel renin inhibitor of equivalent efficacy following oral or intravenous administration” (Bioorg Med Chem Lett, 1994).

Molecules are shown by their SMILES.

This assay deals with T1, Renin (Homo sapiens, UniProt P00797).
T1 sequence (P00797 whole entry): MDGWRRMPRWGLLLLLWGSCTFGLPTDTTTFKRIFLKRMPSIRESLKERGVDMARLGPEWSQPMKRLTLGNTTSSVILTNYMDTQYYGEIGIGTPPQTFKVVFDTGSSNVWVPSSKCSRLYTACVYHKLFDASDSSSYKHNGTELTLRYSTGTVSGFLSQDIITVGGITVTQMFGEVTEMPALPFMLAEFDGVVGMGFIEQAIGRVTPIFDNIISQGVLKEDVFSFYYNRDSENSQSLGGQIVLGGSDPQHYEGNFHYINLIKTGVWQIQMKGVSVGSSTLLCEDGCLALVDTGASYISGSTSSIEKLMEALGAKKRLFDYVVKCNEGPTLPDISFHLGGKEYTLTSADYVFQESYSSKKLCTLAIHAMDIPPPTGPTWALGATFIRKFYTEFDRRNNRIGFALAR
The assay can be described thus: […]. Type of assay: cell-free, Plasma.
As usually defined, the IC50 is the concentration that inhibits the measured activity by half. For `CC(C)C[C@H](NC(=O)[C@H](Cc1ccccc1)NC(=O)CC1CS(=O)(=O)c2ccccc21)C(=O)N[C@@H](CC1CCCCC1)[C@@H](O)CC(=O)NCCn1ccnc1` (some centres not stated), the IC50 came out at 41 nM.

`CC(C)CCNC(=O)C[C@H](O)[C@H](CC1CCCCC1)NC(=O)[C@H](CC(C)C)NC(=O)[C@H](Cc1ccccc1)NC(=O)CC1CS(=O)(=O)c2ccccc21` (some centres not stated): inhibition was half-maximal at 10 nM (IC50).

Compound `CC(C)C[C@H](NC(=O)[C@H](Cc1ccccc1)NC(=O)CCCN1C(=O)CSc2ccncc21)C(=O)N[C@@H](CC1CCCCC1)[C@@H](O)CC(=O)NCCCn1ccnc1` returned an IC50 of 14 nM.

Regarding `CC(C)C[C@H](NC(=O)[C@H](Cc1ccccc1)NC(=O)CC1CS(=O)(=O)c2ccccc21)C(=O)N[C@@H](CC1CCCCC1)[C@@H](O)CC(=O)NCCCc1cccnc1` (some centres not stated), 34 nM corresponded to half-maximal inhibition (IC50).

As to `CC(C)C[C@H](NC(=O)[C@H](Cc1ccccc1)NC(=O)CCN1C(=O)CSc2cnccc21)C(=O)N[C@@H](CC1CCCCC1)[C@@H](O)CC(=O)NCCCn1ccnc1`, half-maximal inhibition (IC50) required 4 nM.

Take `CC(C)C[C@H](NC(=O)[C@H](Cc1ccccc1)NC(=O)CCN1C(=O)CS(=O)(=O)c2ccncc21)C(=O)N[C@@H](CC1CCCCC1)[C@@H](O)CC(=O)NCCCn1ccnc1`: inhibition was half-maximal at 8 nM (IC50).

Turning to `CC(C)C[C@H](NC(=O)[C@H](Cc1ccccc1)NC(=O)CCN1C(=O)COc2ccncc21)C(=O)N[C@@H](CC1CCCCC1)[C@@H](O)CC(=O)NCCCn1ccnc1`, the IC50 is 20 nM.

For the compound `CC(C)C[C@H](NC(=O)[C@H](Cc1ccccc1)NC(=O)CC1CS(=O)(=O)c2ccccc21)C(=O)N[C@@H](CC1CCCCC1)[C@@H](O)CC(=O)NCCCN(C)C` (some centres not stated), the IC50 was 95 nM.

Take `CC(C)C[C@H](NC(=O)[C@H](Cc1ccccc1)NC(=O)CC1CS(=O)(=O)c2ccccc21)C(=O)N[C@@H](CC1CCCCC1)[C@@H](O)CC(=O)NCCCn1ccnc1` (some centres not stated): the IC50 worked out at 12 nM.

For `CC(C)C[C@H](NC(=O)[C@H](Cc1ccccc1)NC(=O)CC1CS(=O)(=O)c2ccccc21)C(=O)N[C@@H](CC1CCCCC1)[C@@H](O)CC(=O)NCCN1CCOCC1` (some centres not stated), inhibition was half-maximal at 170 nM (IC50).

Regarding `CC(C)C[C@H](NC(=O)[C@H](Cc1ccccc1)NC(=O)CC1CS(=O)(=O)c2ccccc21)C(=O)N[C@@H](CC1CCCCC1)[C@@H](O)CC(=O)NCCCC(=O)O` (some centres not stated), half-maximal inhibition (IC50) was put at 55 nM.

For `CC(C)C[C@H](NC(=O)[C@H](Cc1ccccc1)NC(=O)CN1C(=O)CSc2ccncc21)C(=O)N[C@@H](CC1CCCCC1)[C@@H](O)CC(=O)NCCCn1ccnc1`, the 50% inhibitory concentration (IC50) was determined as 38 nM.
